Read-outs that look alike come from different tables or passages of the source.
Assays:
[1] = tested on: Human astrocytoma cell line CCF-STTG1; assay: Lactate release screening assay (fluorescent enzymatic assay); format: cell-based; settings: for Primary screen %: CCF-STTG1, supernatants after 2 hours
Method: Human astrocytoma cell line CCF-STTG1 was cultured at 37° C. in a humidified atmosphere (5% CO2) in RPMI-1640 medium supplemented with 10% (v/v) heat-inactivated fetal calf serum, 50 μg/ml penicillin and 100 μg/ml streptomycin.
CCF-STTG1 were seeded in 384-well plates. Two days later, the cells were washed 3 times and incubated 30 min in Krebs-Ringer bicarbonate HEPES (KRBH) buffer containing (in mM): 140 NaCl, 3.6 KCl, 0.5 NaH2PO4, 0.5 MgSO4, 1.5 CaCl2, 10 HEPES, 5 NaHCO3 (pH7.4) supplemented with 2.5 mM glucose. Then, the cells were maintained in the buffer in the presence of tested compounds. Supernatants were collected after 2 hours and were assessed for lactate concentration. Lactate concentration in the supernatants were determined by fluorescent enzymatic assay. Samples were diluted in assay reagent containing (in mM or U/ml)): 100 sodium phosphate (pH7.5), 0.1 EDTA, 0.05 Amplex UltraRed, 0.1 Lactate oxidase, 1.5 Horseradish Peroxidase.
Fluorescence emission was measured at 600 nm after an excitation at 500 nm using Bioteck Synergie Neo multimode reader after 30 min at room temperature protected from direct light.

[2] = tested on: human iPSc derived into astrocyte (iCell astrocytes); assay: Lactate release dose response in human iPSc derived astrocytes; format: cell-based
Method: Dose response curves were established for compounds identified in the screen to stimulate lactate secretion. The EC50 values for the stimulation of lactate secretion were determined using primary human IPS cell derived astrocytes.
(§1) Differentiated human iPSCs (iCell astrocytes, and iCell cardiomyocytes) were obtained from Cellular Dynamics International (CDI, Madison, Wis., USA). iCell astrocytes were cultured in DMEM supplemented with 10% fetal calf serum and N2 complement. iCell cardiomyocytes were maintained in a medium supplied by CDI. Cell cultures were kept in a humidified atmosphere (5% CO2) at 37° C.
Dose response of compounds on lactate release from human iPSc derived into astrocyte fitted with a log (agonist) vs. response variable slope to extract […] (EC50). Mean±SEM in duplicate.
(§2) The toxicity expressed in log IC50 (ATP content after 24 hours compound treatment on human iPSc derived into cardiomyocyte) was compared against the lactate release in log EC50 (lactate secretion after 2 hours compound treatment in human iPSc derived into astrocytes).

CCF-STTG1 = assay: Lactate release orthogonal assay (spectrophotometric enzymatic assay); format: cell-based, human; settings: CCF-STTG1, supernatants after 2 hours, colorimetric kit
Method: CCF-STTG1 were seeded in 384-well plates. Two days later, the cells were washed 3 times and incubated 30 min in Krebs-Ringer bicarbonate HEPES (KRBH) buffer containing (in mM): 140 NaCl, 3.6 KCl, 0.5 NaH2PO4, 0.5 MgSO4, 1.5 CaCl2, 10 HEPES, 5 NaHCO3 (pH7.4) supplemented with 2.5 mM glucose. The cells were maintained in the buffer in the presence of tested compounds. Supernatants were collected after 2 hours and assessed for lactate concentration. Lactate concentration in the supernatant was determined by a spectrophotometric enzymatic assay (lactate colorimetric assay kit II no. K627; BioVision, Milpitas, Calif. USA). In this kit, lactate is oxidized by lactate dehydrogenase to generate a product which interacts with a probe to produce a color (λmax=450 nm).
Absorbance was measure after 30 min at 450 nm using Bioteck Synergie Neo multimode reader. Background absorbance obtained in the absence of kit was subtracted from each value.
The stimulation of lactate secretion after treatment with meroterpenoid compounds was confirmed in an orthogonal assay based on another enzyme to measure lactate. The results of the lactate release measurement during the drug discovery screen for each compound and the results of lactate release measure with the orthogonal assay were correlated.

[3] = tested on: human iPSc derived into cardiomyocyte (iCell Cardiomyocytes); assay: Toxicity - ATP content (CellTiter-Glo); format: cell-based
Method: as §1
iCell Cardiomyocytes were seeded in 384-well plates. Eight days later cells were treated for 24 hours with compounds. Cell viability was determined by the quantification of intracellular ATP after cell lysis. ATP was used as an indicator of metabolically active cells. ATP was measured using a luminescent cell viability assay (CellTiter-Glo®; […]). Luminescence was measured after 20 min in a Bioteck Synergie Neo multimode reader.
Toxicity of the meroterpenoid compounds were evaluated in human IPS cell derived cardiomyocytes by measuring total ATP in cell lysates.
Dose response of compounds on human iPSc derived into cardiomyocyte with evaluation of the ATP level using cell titer glow. Results were normalized between untreated cells (100%) and positive control (0%).
as §2

[4] = lactate secretion after 2 hours compound treatment, read-out: Astrocytes Lactate release EC50
[5] = log of EC50 in M, given negative, 2 hours compound treatment
[6] = ATP content after 24 hours compound treatment, read-out: Cardiomyocytes Toxicity IC50
[7] = log of IC50 in M, given negative, ATP content after 24 hours

Row | EC50 [2, 4] [µM] | Compound | Primary screen % [1] [%] | Reconfirmation % [1] [%] | Astrocytes Lactate release logEC50 [2, 5] | Orthogonal assay % (CCF-STTG1) [%] | IC50 [3, 6] [µM] | Cardiomyocytes Toxicity log IC50 [3, 7] | EC50 ([2]; Homo sapiens, iPSC, lactate secretion after 2 hours compound treatment, read-out: Astrocytes Lactate release EC50) [µM] | EC50 ([2]; Homo sapiens, iPSC, log of EC50 in M, given negative, 2 hours compound treatment, read-out: Astrocytes Lactate release logEC50 (converted)) [µM] | IC50 ([3]; Homo sapiens, iPSC, ATP content after 24 hours compound treatment, read-out: Cardiomyocytes Toxicity IC50) [µM] | IC50 ([3]; Homo sapiens, iPSC, log of IC50 in M, given negative, ATP content after 24 hours, read-out: Cardiomyocytes Toxicity log IC50 (converted)) [µM]
1 | 0.15 | C/C(=C\Cc1c(O)c(Cl)c(C)c(C=O)c1O)CC[C@@]1(C)[C@H](C)CCC(=O)[C@@H]1C [22562-67-0, Ilicicolin C] | 70 | 74 | −6.8 | 84 | 71 | −4.2 | – | – | – | –
2 | 2.6 | C/C(=C\Cc1c(O)cc(C)c(C=O)c1O)CC[C@@]1(C)[C@H](C)CCC(=O)[C@@H]1C [22562-68-1, Antibiotic LL-Z 1272ε] | 72 | 83 | −5.6 | 68 | 81 | −4.1 | – | – | – | –
3 | 0.014 | CC(/C=C/C1(C)C(C)C=CC(=O)C1C)=C\Cc1c(O)c(Cl)c(C)c(C=O)c1O (stereo not drawn) [22581-11-9] | 68 | 50 | −7.9 | 61 | 3.2 | −5.5 | – | – | – | –
4 | – | CC(/C=C/[C@@]1(C)[C@H](C)CCC(=O)[C@@H]1C)=C\Cc1c(O)c(Cl)c(C)c(C=O)c1O [26166-39-2, Ascochlorin] | – | – | – | – | – | – | 0.011 | 0.0126 | 1.2 | 1.26
5 | – | CC(=O)OC(C[C@@]1(C)[C@H](C)CCC(=O)[C@@H]1C)/C(C)=C/Cc1c(O)c(Cl)c(C)c(C=O)c1O (stereo partly drawn) [38965-84-3, Chloronectrin] | 104 | 97 | – | 68 | 30 | −4.5 | – | – | – | –
6 | 10 | CC(C)=CCC/C(C)=C/Cc1c(O)cc(CCc2ccccc2)c(C(=O)O)c1O [73436-04-1, 4-O-Demethylamorfrutin B] | 82 | 77 | −5.0 | 68 | – | – | – | – | – | –
7 | 3.2 | COc1cc(CCc2ccccc2)c(C(=O)O)c(O)c1CC=C(C)C [80489-90-3, Amorfrutin] | 85 | 122 | −5.5 | 80 | 47 | −4.3 | – | – | – | –
8 | 6.7 | CC(/C=C/[C@@]1(C)[C@H](C)CCC(=O)[C@@H]1C)=C\Cc1c(O)cc(C)c(C=O)c1O [165187-16-6, Cylindrol B] | 100 | 61 | −5.2 | 67 | 31 | −4.5 | – | – | – | –
9 | 0.027 | Ilicicolin F [22738-98-3] | 96 | 142 | −7.6 | 119 | 7 | −5.2 | – | – | – | –

Row | Compound | EC50 [2, 4] [µM] | Primary screen % [1] [%] | Reconfirmation % [1] [%] | Astrocytes Lactate release logEC50 [2, 5] | Orthogonal assay % (CCF-STTG1) [%] | IC50 [3, 6] [µM] | Cardiomyocytes Toxicity log IC50 [3, 7] | EC50 ([2]; Homo sapiens, iPSC, lactate secretion after 2 hours compound treatment, read-out: Astrocytes Lactate release EC50) [µM] | EC50 ([2]; Homo sapiens, iPSC, log of EC50 in M, given negative, 2 hours compound treatment, read-out: Astrocytes Lactate release logEC50 (converted)) [µM] | IC50 ([3]; Homo sapiens, iPSC, ATP content after 24 hours compound treatment, read-out: Cardiomyocytes Toxicity IC50) [µM] | IC50 ([3]; Homo sapiens, iPSC, log of IC50 in M, given negative, ATP content after 24 hours, read-out: Cardiomyocytes Toxicity log IC50 (converted)) [µM]
10 | Lasalocid [25999-31-9] | 4.4 | 88 | 73 | −5.4 | 53 | 11 | −4.9 | – | – | – | –

— patent publication US11510890B2, “Meroterpenoid compounds for use in the prevention and treatment of a neurological disorder” (SOCIETE DES PRODUITS NESTLE S.A., priority 2017, dated 2022)
